Read-outs that look alike come from different tables or passages of the source.

Series [1] is described as follows: Solubility in water (description). It counts as physicochemical. The conditions noted are these: ABOA, white to off-white solid.
For series [2] the following is noted: cited from earlier work.
The conditions of series [3]: product insert (Zytiga Full Prescribing Information, Section 11); cited from earlier work.
The target in a further series is CYP3A4 liver enzyme (Homo sapiens, UniProt P08684). The conditions noted are these: Zytiga Full Prescribing Information, Section 7.2; cited from earlier work.
Chain of CYP3A4 liver enzyme (P08684 whole entry): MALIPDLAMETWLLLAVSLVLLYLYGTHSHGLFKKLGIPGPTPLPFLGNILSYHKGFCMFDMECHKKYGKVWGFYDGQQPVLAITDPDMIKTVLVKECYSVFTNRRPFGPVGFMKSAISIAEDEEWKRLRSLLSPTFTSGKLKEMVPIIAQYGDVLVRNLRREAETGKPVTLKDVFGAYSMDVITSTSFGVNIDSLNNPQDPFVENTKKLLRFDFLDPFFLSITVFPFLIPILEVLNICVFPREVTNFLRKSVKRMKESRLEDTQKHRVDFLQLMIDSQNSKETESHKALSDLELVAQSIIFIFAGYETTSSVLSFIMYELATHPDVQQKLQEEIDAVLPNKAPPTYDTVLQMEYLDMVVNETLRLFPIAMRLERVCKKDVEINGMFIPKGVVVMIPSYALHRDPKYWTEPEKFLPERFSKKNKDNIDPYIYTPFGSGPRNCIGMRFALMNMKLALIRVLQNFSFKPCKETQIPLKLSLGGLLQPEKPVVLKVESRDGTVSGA

As for `C[C@]12CC[C@H](OC(=O)C(=O)O)CC1=CC[C@@H]1[C@@H]2CC[C@]2(C)C(c3cccnc3)=CC[C@@H]12` [ABOA, 2-(((3S,8R,9S,10R,13S,14S)-10,13-dimethyl-17-(pyridin-3-yl)-2,3,4,7,8,9,10,11,12,13,14,15-dodecahydro-1H-cyclopenta[a]phenanthren-3-yl)oxy)-2-oxoacetic acid], the solubility in water result in series [1] is listed as “practically insoluble in water”.
Turning to `CC(=O)O[C@H]1CC[C@@]2(C)C(=CC[C@@H]3[C@@H]2CC[C@]2(C)C(c4cccnc4)=CC[C@@H]32)C1` [abiraterone acetate], the food-effect result in series [2] (depending on fat content of the meal) is “five- to ten-fold”. Besides, the administered drug excreted in series [2] (oral, low bioavailability from poor absorption) is reported as 77%. For the same compound, the solubility in water entry in series [3] was “practically insoluble in water”. Besides, at CYP3A4 liver enzyme, the CYP3A4 substrate entry is given as “substrate of the CYP3A4 liver enzyme”.

The values above are taken from patent US10717762B2, “Abiraterone derivative and formulations thereof” (Zhuhai Beihai Biotech Co., Ltd., priority 2016, dated 2020).
